Measured values published in ChEMBL document CHEMBL6103579, “Antiproliferative activity of selenium-enriched coumarin derivatives on the SK-N-SH neuroblastoma cell line: Mechanistic insights” (Eur J Med Chem, 2025).
Activity calls are given as the source filed them. The rule behind the calls is not given here.

What was measured:
[1] = Toxicity in female ICR mouse assessed as abnormal movement at 10 to 20 mg/kg, ip; type: organism-based; conditions: in vivo, dose 10-20 mg/kg
N2a [2] = assay: Antitumor activity against mouse N2a cells implanted in female ICR mouse model assessed as reduction in tumor weight at 10 mg/kg, ip measured upto 8 days (reference value: 0.9 +/-0.26 g); type: functional; conditions: time <= 8 day
SK-N-SH [3] = assay: Upregulation of Bax/[…] ratio in human SK-N-SH cells at 3 to 9 uM measured after 48 hrs by Western blot analysis; type: functional, cell-based; conditions: dose 3-9 µM
[4] = Toxicity in female ICR mouse assessed as effect on body weight loss at 10 to 20 mg/kg, ip; type: organism-based; conditions: in vivo, dose 10-20 mg/kg
N2a [5] = assay: Antitumor activity against mouse N2a cells implanted in female ICR mouse model assessed as tumor inhibition rate at 10 mg/kg, ip measured upto 8 days relative to control; type: functional; design: scale not given: the % may be the effect or the level left; conditions: time <= 8 day
SK-N-SH [6] = assay: Upregulation of cytochrome C level in human SK-N-SH cells at 6 uM measured after 48 hrs by immunofluorescence staining based microscopic analysis; type: functional, cell-based
N2a [7] = assay: Antitumor activity against mouse N2a cells implanted in female ICR mouse model assessed as change in body weight at 10 mg/kg, ip measured upto 8 days (reference value: 25.54 +/-2.19 g); type: functional; conditions: time <= 8 day
[8] = (§1) Upregulation of E-cadherin expression in human SK-N-SH cells measured after 48 hrs by Western blot analysis relative to control; type: functional; conditions: dose 3-9 µM, at 3 to 9 µM
SK-N-SH [9] = assay: as §1; type: functional; conditions: dose 3-9 µM
SK-N-SH [10] = assay: Antiproliferative activity against human SK-N-SH cells assessed as reduction in cell proliferation incubated for 60 hrs by CCK-8 method; type: functional, cell-based; conditions: dose 0.5-2 µM
SK-N-SH [11] = assay: Induction of mitochondrial dysfunction in human SK-N-SH cells assessed as appearance of blurred mitochondria at 6 uM measured after 48 hrs by fluorescence microscopic analysis; type: functional, cell-based
N2a [12] = assay: Antiproliferative activity against mouse N2a cells assessed as inhibition of cell growth incubated for 60 hrs by CCK-8 method; type: functional, cell-based
N2a [13] = assay: Antitumor activity against mouse N2a cells implanted in female ICR mouse model assessed as reduction in tumor weight at 20 mg/kg, ip measured upto 8 days (reference value: 0.9 +/-0.26 g); type: functional; conditions: time <= 8 day
[14] = Toxicity in female ICR mouse assessed as change in organ coefficient of kidney at 20 mg/kg, ip […] (reference value: 0.007); type: organism-based; conditions: in vivo
[15] = Antiproliferative activity against human Neuroblastoma cell assessed as inhibition of cell growth incubated for 60 hrs by CCK-8 method; type: functional, cell-based
SK-N-SH [16] = assay: Upregulation of Bax expression in human SK-N-SH cells at 3 to 9 uM measured after 48 hrs by Western blot analysis; type: functional, cell-based; conditions: dose 3-9 µM
[17] = Toxicity in female ICR mouse assessed as change in organ coefficient of liver at 20 mg/kg, ip […] (reference value: 0.058+/-0.010); type: organism-based; conditions: in vivo
[18] = Toxicity in female ICR mouse assessed as change in organ coefficient of liver at 10 mg/kg, ip […] (reference value: 0.058+/-0.010); type: organism-based; conditions: in vivo
[19] = Toxicity in female ICR mouse assessed as histomorphological changes in spleen at 10 to 20 mg/kg, ip H and E staining based analysis; type: organism-based; conditions: in vivo, dose 10-20 mg/kg
Quadruplex DNA = assay: Binding affinity to BCL-2 G4 DNA (unknown origin) assessed as dissociation constant by SPR analysis; type: nucleic-acid assay
SK-N-SH [20] = assay: Downregulation of Bcl-2 expression in human SK-N-SH cells at 3 to 9 uM measured after 48 hrs by Western blot analysis; type: functional, cell-based; conditions: dose 3-9 µM
SK-N-SH [21] = assay: Induction of mitochondrial dysfunction in human SK-N-SH cells assessed as appearance of fragmented mitochondria at 6 uM measured after 48 hrs by fluorescence microscopic analysis; type: functional, cell-based
SK-N-SH [22] = assay: Induction of mitochondrial dysfunction in human SK-N-SH cells assessed as increase in intracellular green fluorescence intensity at 6 uM; type: functional, cell-based; conditions: time 2-48 hrs
N2a [23] = assay: Antitumor activity against mouse N2a cells implanted in female ICR mouse model assessed as change in body weight at 20 mg/kg, ip measured upto 8 days (reference value: 25.54 +/-2.19 g); type: functional; conditions: time <= 8 day
SK-N-SH [24] = assay: Antiproliferative activity against human SK-N-SH cells assessed as reduction in cell proliferation at 0.5 uM incubated for 60 hrs by CCK-8 method relative to control; type: functional; design: scale not given: the % may be the effect or the level left
[25] = Toxicity in female ICR mouse assessed as appearance of homogenous renal corpuscles in kidney at 10 to 20 mg/kg, ip H and E staining based analysis; type: organism-based; conditions: in vivo, dose 10-20 mg/kg
N2a [26] = assay: Antitumor activity against mouse N2a cells implanted in female ICR mouse model assessed as tumor inhibition rate at 20 mg/kg, ip measured upto 8 days relative to control; type: functional; design: scale not given: the % may be the effect or the level left; conditions: time <= 8 day
SK-N-SH [27] = assay: Inhibition of cell migration in human SK-N-SH cells at 2 uM measured after 48 hrs by crystal violet staining based microscopic analysis relative to control; type: functional
[28] = Drug localization in nucleus of human SK-N-SH cells assessed as increase in green fluorescence at 6 uM measured after 48 hrs by DAPI staining based fluorescence microscopic analysis; type: ADME, subcellular
[29] = Antiproliferative activity against human Embryonic lung cell assessed as inhibition of cell growth incubated for 60 hrs by CCK-8 method; type: toxicity, cell-based
[30] = Toxicity in female ICR mouse assessed as hyperplasia in liver at 10 to 20 mg/kg, ip by H and E staining based analysis; type: organism-based; conditions: in vivo, dose 10-20 mg/kg

**Q.** With `N#C[Se]CCCOc1ccc2cc(C(=O)N3N=C(c4ccc(F)cc4)CC3c3ccc(F)cc3)c(=O)oc2c1` (stereo unspecified) as the molecule, how does the Activity [1] read?
**A.** The Activity was “Non-toxic”.

**Q.** What about the Activity (N2a [2]) of the same molecule?
**A.** The Activity was 0.19 g.

**Q.** What about the Activity (SK-N-SH [3]) of the same molecule?
**A.** The Activity was “Active”.

**Q.** And the Activity [4]?
**A.** The Activity was “Non-toxic”.

**Q.** And the Activity (N2a [5])?
**A.** Its Activity is 79.1%.

**Q.** And the Activity (SK-N-SH [6])?
**A.** The Activity was “Active”.

**Q.** And the Activity (N2a [7])?
**A.** The Activity was 27.2 g.

**Q.** What about the Activity [8] of the same molecule?
**A.** Its Activity is 32.3%.

**Q.** What about the Activity (SK-N-SH [9]) of the same molecule?
**A.** The Activity was “Dose-dependent-effect”.

**Q.** And the Activity (SK-N-SH [10])?
**A.** The Activity was “Dose-dependent-effect”.

**Q.** And the Activity (SK-N-SH [11])?
**A.** The Activity was “Active”.

**Q.** What about the IC50 (N2a [12]) of the same molecule?
**A.** The IC50 was 17900 nM.

**Q.** What about the Activity (N2a [13]) of the same molecule?
**A.** Its Activity is 0.06 g.

**Q.** And the Activity [14]?
**A.** Its Activity is 0.008.

**Q.** What about the IC50 [15] of the same molecule?
**A.** Its IC50 is 2500 nM.

**Q.** And the Activity (SK-N-SH [16])?
**A.** The Activity was “Active”.

**Q.** What about the Activity [17] of the same molecule?
**A.** Its Activity is 0.059.

**Q.** What about the Activity [18] of the same molecule?
**A.** The Activity was 0.059.

**Q.** What about the Activity [19] of the same molecule?
**A.** The Activity was “Non-toxic”.

**Q.** What about the Kd (Quadruplex DNA) of the same molecule?
**A.** The Kd was 78.5 nM.

**Q.** What about the Activity (SK-N-SH [20]) of the same molecule?
**A.** The Activity was “Active”.

**Q.** And the Activity (SK-N-SH [21])?
**A.** Its Activity is “Active”.

**Q.** And the Activity (SK-N-SH [22])?
**A.** Its Activity is “Time-dependent-effect”.

**Q.** What about the Activity (N2a [23]) of the same molecule?
**A.** Its Activity is 26.34 g.

**Q.** What about the Activity (SK-N-SH [24]) of the same molecule?
**A.** The Activity was 24.1%.

**Q.** And the Activity [25]?
**A.** The Activity was “Non-toxic”.

**Q.** What about the Activity (N2a [26]) of the same molecule?
**A.** Its Activity is 93.3%.

**Q.** And the inhibition at 2 µM (SK-N-SH [27])?
**A.** Its inhibition at 2 µM is 83.2%.

**Q.** And the Drug uptake [28]?
**A.** The Drug uptake was “Not_active”.

**Q.** What about the Activity [29] of the same molecule?
**A.** Its Activity is “Non-toxic”.

**Q.** What about the Activity [30] of the same molecule?
**A.** The Activity was “Non-toxic”.
